# Experiments:
# [1] = system: HDR in HEK293 reporter cell line (truncated EGFP); assay: HDR assay with paired nickases Cas9n D10A RNP and ssOligo donor, EGFP-positive cells by FACS; type: cell-based, human; details: FIG. 3; for dose-dependency of HDR efficiency: three concentrations (low, medium, high); for concentration with highest HDR efficiency: three concentrations tested
# Protocol: More specifically, an HDR assay using a HEK reporter cell line containing truncated EGFP may be used. These cells may be transfected with a transfection complex containing the CRISPR endonuclease and a donor sequence. Cas9 RNPs may be prepared by following the manufacturers' guidelines. The transfection complex may be prepared by adding Cas9 RNP or Cas9 nickase RNP, along with ssOligo donor and lipofectamine 2000 in Optimem. Reagents should be mixed well and incubated for 20 mins. After 20 mins, 50 μlof transfection complex (at an optimal concentration—see the Examples herein) may be transferred in a 96 well plate and 50 μlHEK293 reporter cell line suspension (9×10^5 cells/ml) added followed by 50 μl of cell culture medium containing appropriate concentration(s) of inhibitor(s). Cells may be incubated at 37° C. in a CO2 incubator for 24 hours and then inhibitor-containing media should be replaced with fresh media without inhibitor. Cells are then further incubated for 48 hours. After 48 hours, cells may be trypsinized and resuspended in PBS containing 10% FBS. Samples may be run on FACS and the percentage of EGFP in the population measured. Presence of EGFP directly correlates with HDR efficiency. […]
# To understand if inhibitors have any influence on HDR mediated by paired nickases, we carried out an HDR assay in the presence of the small molecule inhibitor library. Briefly, in vitro reconstituted Cas9n D10A RNP with gRNA-X1 and gRNA-X2 was transfected into the reporter cell line along with ssOligo donor in the presence of different small molecule inhibitors. Inhibitor-containing media was replaced with fresh media after 24 hours and the cells were then further incubated for 48 hours. After 48 hours, the cells were trypsinized and resuspended in 10% FBS containing PBS and analysed by FACS. EGFP-positive cells were monitored; these represented successful HDR events. […]
# HEK reporter cell line = assay: cell-viability assay with alamar blue reagent; type: cell-based, human; details: 72 hours
# Protocol: To investigate the effect of this library on HDR efficiency and to identify novel molecules which would increase the HDR mediated gene editing efficiency, first we carried out a cell-viability assay using the HEK reporter cell line and alamar blue reagent. The experiment was performed to rule out any toxicity associated with the small molecule library. Briefly, 3 different concentration of inhibitors (0.1 μM, 1 μM and 10 μM) were added in the cells in a 96 well plate format and plates were incubated for 72 hours. After 72 hours, the media were replaced with alamar blue containing media and the plates were further incubated for 3 hours and then read on a Fluorstar omega plate reader. The table gives the results obtained with the subsequently-selected inhibitors, together with a range of other potential inhibitors.
Compound,dose-dependency of HDR efficiency [1],concentration with highest HDR efficiency [1] [µM],% survival (HEK reporter cell line; 0.1 μM inhibitor) [%],% survival (HEK reporter cell line; 1 μM inhibitor) [%],% survival (HEK reporter cell line; 10 μM inhibitor) [%]
Cl.O=C([C@@H](Cc1cccc(C(F)(F)F)c1)NS(=O)(=O)c1cc(F)c2c(c1)CCNC2)N1CCCC1 [(R)-PFI2 hydrochloride],dose-dependent increases in HDR efficiency,20,102.58 ± 0.88,101.51 ± 4.1,96.42 ± 0.64
Clc1cc2c(NC3CCCC3)nnc(-c3ccncc3)c2cc1Cl [A196],dose-dependent increases in HDR efficiency,20,105.84 ± 0.05,107.75 ± 6.83,107.43 ± 0.21
CN(C)[C@H]1CN(C2CCc3cccc(F)c32)C[C@@H]1c1ccc(N2CCN(S(C)(=O)=O)CC2)cc1 (some centres unmarked) [A395],did not show any significant dose-dependency,–,100.35 ± 1.4,103.27 ± 0.32,87.94 ± 9.49
O=C(Nc1c[nH]nc1-c1nc2cc(CN3CCOCC3)ccc2[nH]1)NC1CC1 [AT9283],moderate decreases in HDR efficiency upon increasing the inhibitor concentration,0.05,–,–,–
CCN(C(=O)CO)[C@H]1CN(/C(=N\C#N)Nc2cccc(OC(F)F)c2)N=C1c1ccc(Cl)c(Cl)c1 [BAY598],dose-dependent increases in HDR efficiency,20,102.45 ± 0.9,102.92 ± 0.42,101.44 ± 8.52
COc1ccc(CCC(=O)Nc2nc3ccc(Cl)cc3s2)cc1OC [KY02111],did not show any significant dose-dependency,–,100.52 ± 2.05,100.86 ± 1.83,95.18 ± 2.27
O=c1cc(N2CCOCC2)oc2c1ccc1ccccc12 [NU7026],–,–,100.08 ± 4.01,100.14 ± 4.13,83.17 ± 1.44
O=c1cc(N2CCOCC2)oc2c(-c3cccc4c3sc3ccccc34)cccc12 [NU7441],dose-dependent increases in HDR efficiency,2,103.58 ± 4.44,88.88 ± 3.55,22.95 ± 0.98
CCCCc1nc2cc(/C=C/C(=O)NO)ccc2n1CCN(CC)CC [SB939],moderate decreases in HDR efficiency upon increasing the inhibitor concentration,0.05,80.99 ± 1.01,15.56 ± 2.26,2.25 ± 0.31
